Source: publication PMC3435245, “D-Alanylation of Lipoteichoic Acids Confers Resistance to Cationic Peptides in Group B Streptococcus by Increasing the Cell Wall Density” (PLoS Pathogens, 2012)
≈ marks a conversion by molar mass, not a printed value. Marks after values point to notes of the source that are not given here. Where a SMILES comes first, the peptide text is derived from it. [ ]: non-standard residue; d: D form.

Columns and labels:
GBS ΔcpsD mutant = assay: MIC90 by dilution method, GBS ΔcpsD; type: cell-based, Streptococcus agalactiae; conditions: Todd-Hewitt broth with 100 mM HEPES, 2×10^6 CFU, 96-well polypropylene microplate, overnight 37°C, OD600 nm; average of triplicate measurements
Protocol: (§1) The MICs of each antimicrobial peptide were tested in Todd-Hewitt broth (THB) buffered with 100 mM HEPES in 96-well polypropylene microplates (Costar, Cambridge, MA) by a dilution method. Bacteria (2×10^6 CFU) were added in triplicates to wells containing increasing concentrations of the antimicrobial peptides. Plates were incubated at 37°C with shaking overnight and then read (OD600 nm) using microplate reader (Labsystems Multiskanat) for bacterial growth. The MICs90 was considered to be the peptide concentration that inhibited 90% growth.

GBS WT and dltA strains = assay: SYTOX green uptake assay (membrane perforation); type: cell-based, Streptococcus agalactiae; conditions: 30 min exposure, 1 µM SYTOX green, sodium phosphate buffer 20 mM pH 7.4, excitation 485 nm, emission 520 nm; triplicates
Excerpt: To determine whether altered susceptibility to CAMPs correlates with changes in membrane permeability, we measured the entrance of the cationic dye SYTOX green into the WT and dltA strains. SYTOX green cannot enter intact bacteria unless the membrane is disrupted by external compounds. Upon penetration into bacteria and binding to intracellular nucleic acids, its signal increases drastically. A dose-dependent enhancement of signal intensity was found following exposure to selected CAMPs.
Figure 2 Susceptibility of GBS strains to perforation by CAMPs. Peptide-dependent influx of the vital dye SYTOX green following 30 min exposure of GBS to magainin 2 (A), LL-37 (B), 5D-K6L9 (C) and K5L7 (D). Solid lines represent the WT strain whereas dashed lines represent the dltA muatnt. All readings were normalized by subtracting the basal fluorescence of the dye. Data are means ± SD of triplicate measurements.
Bacteria were washed twice, resuspended in sodium phosphate buffer (SPB, 20 mM, pH 7.4), and incubated with 1 µM SYTOX green for 20 min in the dark with agitation. Bacteria were added to a 96 well black plate (Nunc, Denmark) containing increasing concentrations of CAMPs and the increase in fluorescence, due to penetration and binding of the dye to intracellular DNA, was immediately monitored (excitation of 485 nm and emission of 520 nm). […]

GBS NEM316 WT strain = type: cell-based, Streptococcus agalactiae; conditions: Todd-Hewitt broth with 100 mM HEPES, 2×10^6 CFU, 96-well polypropylene microplate, overnight 37°C, OD600 nm; average of triplicate measurements
Protocol: as §1

GBS Δlgt Δlsp mutant = assay: MIC90 by dilution method, GBS Δlgt Δlsp; type: cell-based, Streptococcus agalactiae; conditions: Todd-Hewitt broth with 100 mM HEPES, 2×10^6 CFU, 96-well polypropylene microplate, overnight 37°C, OD600 nm; average of triplicate measurements
Protocol: as §1

GBS ΔsrtA mutant = assay: MIC90 by dilution method, GBS ΔsrtA; type: cell-based, Streptococcus agalactiae; conditions: Todd-Hewitt broth with 100 mM HEPES, 2×10^6 CFU, 96-well polypropylene microplate, overnight 37°C, OD600 nm; average of triplicate measurements
Protocol: as §1

GBS ΔdltA mutant = assay: MIC90 by dilution method, GBS ΔdltA; type: cell-based, Streptococcus agalactiae; conditions: Todd-Hewitt broth with 100 mM HEPES, 2×10^6 CFU, 96-well polypropylene microplate, overnight 37°C, OD600 nm; average of triplicate measurements
Protocol: as §1

[1] = RP-HPLC hydrophobicity (% AcN at elution); type: physicochemical; conditions: chromatographic, C4 reverse analytical column; eluted in 40 min, linear gradient of acetonitrile 30 to 70% v/v in water containing TFA (0.05% v/v)
Protocol: The procedure conducted as described previously. Briefly, peptides were synthesized using the Fmoc solid phase method on Rink amide resin ([…]). For fluorescent labeling of the N-terminus of the peptides, resin-bound peptides were treated with NBD or rhodamine dissolved in dimethyl formamide (DMF), washed thoroughly with DMF and then with methylene chloride, dried and then cleaved. […] The peptides were subjected to amino acid and mass spectrometry analysis to confirm their composition.

GBS ΔmprF mutant = assay: MIC90 by dilution method, GBS ΔmprF; type: cell-based, Streptococcus agalactiae; conditions: Todd-Hewitt broth with 100 mM HEPES, 2×10^6 CFU, 96-well polypropylene microplate, overnight 37°C, OD600 nm; average of triplicate measurements
Protocol: as §1

GBS dltA mutant = assay: Rhodamine-labeled peptide fluorescence self-quenching on addition of bacteria (aggregation), dltA; type: cell-based, Streptococcus agalactiae; conditions: rhodamine-labeled peptide 1 µM
Excerpt: (§2) We further investigated whether the increased cell wall density resulting from D-alanylation of LTAs can reduce CAMPs penetration through the cell wall barrier by following the interaction of fluorescently labeled CAMPs with intact bacteria. […] Here, we investigated if the peptides display different aggregation states when bound to the WT or the dltA mutant strains. This was done by monitoring changes in the signal intensity of rhodamine-labeled peptides following their interaction with the bacterial surface under under high (160 mM NaCl) and low (16 mM NaCl) ionic strength conditions. Addition of bacteria to the rhodamine-labeled peptides induced self-quenching of fluorescence for all tested peptides. However, no significant difference in aggregation was found in the WT compared to the dltA strain (Figure 7A and Table 3).
Real time tracking of the changes in the fluorescent signal of rhodamine or NBD labeled peptides was performed using an SLM-Aminco Bowman series 2-luminescence spectrophotometer (SLM-Aminco, Rochester, NY, USA) at room temperature. Typical spectral bandwidths were 5 nm for excitation and 5 nm for emission. […] The peptides were placed in a 5×5-mm quartz cuvette with constant magnetic stirring. Following signal stabilization, bacterial suspension (10 µl, OD600 nm adjusted to 4) or liposomes suspension (100 µM lipid final concentration) composed of cardiolipid/PG (1∶1 M/M) was added to the cuvette and the change in signal was monitored over time.

GBS WT strain = assay: Rhodamine-labeled peptide fluorescence self-quenching on addition of bacteria (aggregation), WT; type: cell-based, Streptococcus agalactiae; conditions: rhodamine-labeled peptide 1 µM, self-quenching (aggregation) relative to basal signal of the peptide after addition of bacteria, room temperature; means of triplicate measurements from two independent experiments
Excerpt: as §2
Real time tracking of the changes in the fluorescent signal of rhodamine or NBD labeled peptides was performed using an SLM-Aminco Bowman series 2-luminescence spectrophotometer (SLM-Aminco, Rochester, NY, USA) at room temperature. Typical spectral bandwidths were 5 nm for excitation and 5 nm for emission. […] Following signal stabilization, bacterial suspension (10 µl, OD600 nm adjusted to 4) or liposomes suspension (100 µM lipid final concentration) composed of cardiolipid/PG (1∶1 M/M) was added to the cuvette and the change in signal was monitored over time.

[2] = self-quenching (aggregation) relative to basal signal of the peptide after addition of bacteria, room temperature, means of triplicate measurements from two independent experiments

Row | Compound | MIC90, ΔcpsD (GBS ΔcpsD mutant) | SYTOX green influx signal, dltA mutant compared to WT (GBS WT and dltA strains) | MIC90, WT (GBS NEM316 WT strain) | MIC90, Δlgt Δlsp (GBS Δlgt Δlsp mutant) | MIC90, ΔsrtA (GBS ΔsrtA mutant) | MIC90, ΔdltA (GBS ΔdltA mutant) | Hydrophobicity (% AcN) [1] | MIC90, ΔmprF (GBS ΔmprF mutant) | Signal change [%], NaCl (16 mM), dltA (GBS dltA mutant; [2]) | Signal change [%], NaCl (160 mM), dltA (GBS dltA mutant; [2]) | Difference in signal change [%], NaCl (160 mM), Δ(dltA-WT) (GBS dltA mutant; difference in the signal change between dltA strain to the WT strain) | Signal change [%], NaCl (16 mM), WT (GBS WT strain) | Signal change [%], NaCl (160 mM), WT (GBS WT strain)
1 | CC(C)C[C@H](NC(=O)[C@H](CC(C)C)NC(=O)[C@@H](CCCCN)NC(=O)[C@H](CC(C)C)NC(=O)[C@H](CC(C)C)NC(=O)[C@H](CCCCN)NC(=O)[C@@H](CCCCN)NC(=O)[C@@H](CC(C)C)NC(=O)[C@H](CC(C)C)NC(=O)[C@@H](CCCCN)NC(=O)[C@H](CCCCN)NC(=O)[C@H](CC(C)C)NC(=O)[C@@H](CC(C)C)NC(=O)[C@H](CCCCN)NC(=O)[C@@H](N)CC(C)C)C(N)=O [5D-K6L9] (H-LK[dL]LK[dK]L[dL][dK]KLL[dK]LL-NH2; N-terminus assumed) | 4.4 µM (≈ 7.94 µg/mL) | similarly active on both strains | 4.4 µM (≈ 7.94 µg/mL) | 4.4 µM (≈ 7.94 µg/mL) | 4.4 µM (≈ 7.94 µg/mL) | 2.2 µM (≈ 3.97 µg/mL) | 55.6 % AcN | 4.4 µM (≈ 7.94 µg/mL) |  |  |  |  | 
2 | Rho-LL37: rhodamine-labeled LL37 (N-terminus) |  |  |  |  |  |  |  |  | −58.6% | −32.7 ^c % | 6.1% | −60.8% | −26.6%
